This is an account of results in patent publication US12642270B2, “Substituted thiophene carboxamides, thiophene carboxylic acids and derivatives thereof” (Bayer Aktiengesellschaft, priority 2019, dated 2026).

Molecules are shown by their SMILES.

A short description of this data set: Log P by HPLC on reversed phase columns (EEC directive 79/831 Annex V.A8). It is filed as physicochemical. Conditions: method marked [a]. A digest of the protocol: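 Reversed-phase HPLC per EEC 79/831 Annex V.A8, LC-UV with 10→95% acetonitrile linear gradient; eluent [a] 0.1% formic acid (acidic), [b] 0.001 M ammonium acetate (neutral), [c] 0.1% phosphoric acid (acidic). Calibrated with C3–C16 straight-chain alkan-2-ones, linear interpolation of retention times; multiple values joined by "+".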
Take `O=C(CNC(=O)c1sc(Br)c(Br)c1F)OC1CCOC1` (stereo not drawn) [1.0678]: the LogP is 2.53^[a]. In the case of `Cc1c(C(=O)NCC(=O)OC2CCOC2)sc(C#N)c1Br` (stereo not drawn) [1.0679], the LogP is 2.12^[a].

`COC(=O)C1(NC(=O)c2sc(C#N)c(Br)c2C)CCC1` [1.0680]: the LogP is 2.71^[a]. With `COC(=O)CNC(=O)c1sc(Cl)c(Cl)c1C#N` [1.0681], the LogP is 2.17^[a]. The value for `COC(=O)C1(NC(=O)c2sc(Cl)c(Cl)c2C#N)CC1` [1.0682] was 2.33^[a]. For the molecule `CCOC(=O)C1(NC(=O)c2sc(C#N)c(Cl)c2Br)CCC1` [1.0683], the LogP was 3.34^[a]. For the molecule `COC(=O)C(C)(C)NC(=O)c1sc(Cl)c(Cl)c1C#N` [1.0684], the LogP was 2.73^[a]. `CCOC(=O)C(Cc1ccccc1)NC(=O)c1sc(Cl)c(Cl)c1C#N` (stereo not drawn) [1.0685]: the LogP was 3.98^[a].

Turning to `COC(=O)C1(NC(=O)c2sc(Cl)c(Cl)c2C#N)CCC1` [1.0686], the LogP was 2.79^[a]. Regarding `CCOC(=O)C1(NC(=O)c2sc(Cl)c(Cl)c2C#N)CCC1` [1.0687], the LogP is 3.16^[a]. Turning to `N#CCNC(=O)c1sc(Cl)c(Cl)c1C#N` [1.0688], the LogP was 2.04^[a].

Consider `CCOC(=O)CNC(=O)c1sc(Br)c(C#N)c1Cl` [1.0689], for which the LogP was 2.57^[a]. As to `COC(=O)CNC(=O)c1sc(Br)c(C#N)c1Cl` [1.0690], the LogP is 2.19^[a]. Turning to `CCOC(=O)C1(NC(=O)c2sc(Br)c(C#N)c2Cl)CC1` [1.0691], the LogP was 2.71^[a]. Take `COC(=O)C1(NC(=O)c2sc(Br)c(C#N)c2Cl)CC1` [1.0692]: the LogP was 2.37^[a]. Turning to `COC(=O)C(C)(C)NC(=O)c1sc(Br)c(C#N)c1Cl` [1.0693], the LogP was 2.84^[a]. `CCOC(=O)C(NC(=O)c1sc(Br)c(C#N)c1Cl)C(C)C` (stereo not drawn) [1.0694]: the LogP was 3.83^[a].

Take `COC(=O)C(NC(=O)c1sc(Cl)c(Cl)c1C#N)C1CC1` (stereo not drawn) [1.0695]: the LogP is 2.89^[a]. As for `CCOC(=O)CNC(=O)c1sc(F)c(Br)c1Br` [1.0697], the figure is 3.01^[a]; as for `COC(=O)CNC(=O)c1sc(F)c(Br)c1Br` [1.0698], 2.60^[a].

On to `O=C(NC1(C(=O)O)CC1)c1cc(Br)c(C(F)(F)F)s1` [1.0700], for which the LogP was 2.44^[a]. On to `CCOC(=O)C(C)(C)NC(=O)c1sc(Cl)c(Br)c1Br` [1.0701], for which the LogP was 4.30^[a]. As to `O=C(NC1(C(=O)O)CC1)c1sc(Cl)c(Br)c1F` [1.0702], the LogP is 2.15^[a].

On to `O=C(NC1(C(=O)O)CC1)c1sc(Br)c(Cl)c1F` [1.0703], for which the LogP is 2.14^[a]. In the case of `CCCOC(=O)C1(NC(=O)c2sc(Br)c(Cl)c2C)CC1` [1.0704], the LogP was 3.62^[a]. For `Cc1c(C(=O)NC2(C(=O)OC3CCC3)CCC2)sc(Br)c1Cl` [1.0705], the LogP is 4.33^[a]. Take `CCOC(=O)C1(NC(=O)c2sc(F)c(Br)c2Br)CC1` [1.0706]: the LogP is 3.17^[a]. In the case of `COC(=O)C1(NC(=O)c2sc(F)c(Br)c2Br)CC1` [1.0707], the LogP is 2.76^[a].

Consider `COC(=O)C(C)(C)NC(=O)c1sc(F)c(Br)c1Br` [1.0708], for which the LogP is 3.38^[a]. On to `CCOC(=O)C(NC(=O)c1sc(F)c(Br)c1Br)C(C)C` (stereo not drawn) [1.0709], for which the LogP is 4.48^[a]. Take `COC(=O)C(NC(=O)c1sc(F)c(Br)c1Br)C1CC1` (stereo not drawn) [1.0710]: the LogP is 3.55^[a]. As for `CCOC(=O)C(Cc1ccccc1)NC(=O)c1sc(F)c(Br)c1Br` (stereo not drawn) [1.0711], the figure is 4.67^[a]. `COC(=O)C1(NC(=O)c2sc(F)c(Br)c2Br)CCC1` [1.0712]: the LogP is 3.41^[a]. In the case of `CCOC(=O)C1(NC(=O)c2sc(F)c(Br)c2Br)CCC1` [1.0713], the LogP is 3.88^[a].

In the case of `N#CCNC(=O)c1sc(F)c(Br)c1Br` [1.0714], the LogP was 2.39^[a]. Regarding `CCOC(=O)CNC(=O)c1cc(Br)c(C(F)(F)F)s1` [1.0715], the LogP is 3.00^[a].

`COC(=O)CNC(=O)c1cc(Br)c(C(F)(F)F)s1` [1.0716]: the LogP is 2.65^[a]. On to `COC(=O)C1(NC(=O)c2cc(Br)c(C(F)(F)F)s2)CC1` [1.0717], for which the LogP is 2.87^[a]. Regarding `COC(=O)C(C)(C)NC(=O)c1cc(Br)c(C(F)(F)F)s1` [1.0718], the LogP was 3.23^[a]. For the molecule `CCOC(=O)C(NC(=O)c1cc(Br)c(C(F)(F)F)s1)C(C)C` (stereo not drawn) [1.0719], the LogP was 4.18^[a]. Consider `COC(=O)C(NC(=O)c1cc(Br)c(C(F)(F)F)s1)C1CC1` (stereo not drawn) [1.0720], for which the LogP was 3.41^[a]. The value for `CCOC(=O)C(Cc1ccccc1)NC(=O)c1cc(Br)c(C(F)(F)F)s1` (stereo not drawn) [1.0721] was 4.36^[a]; that for `COC(=O)C1(NC(=O)c2cc(Br)c(C(F)(F)F)s2)CCC1` [1.0722] was 3.33^[a]; that for `CCOC(=O)C1(NC(=O)c2cc(Br)c(C(F)(F)F)s2)CCC1` [1.0723] was 3.70^[a]. With `N#CCNC(=O)c1cc(Br)c(C(F)(F)F)s1` [1.0724], the LogP was 2.61^[a].

Take `Cc1c(C(=O)NC2(C(=O)OC3CCC3)CCC2)sc(Cl)c1Br` [1.0725]: the LogP was 4.37^[a]. On to `CCOC(=O)C1(NC(=O)c2cc(Br)c(C(F)(F)F)s2)CC1` [1.0726], for which the LogP is 3.22^[a]. The value for `CCOC(=O)C1(NC(=O)c2sc(Cl)c(Cl)c2Br)CSC1` [1.0727] was 3.95^[a]. Consider `CCOC(=O)C1(NC(=O)c2sc(Br)c(Br)c2Cl)CSC1` [1.0728], for which the LogP is 3.97^[a]. Take `COC(=O)[C@H](CCSC)NC(=O)c1sc(C#N)c(Br)c1C` [1.0729]: the LogP is 3.03^[a].

Regarding `COC(=O)[C@H](CCSC)NC(=O)c1sc(C#N)c(Cl)c1C` [1.0730], the LogP is 2.97^[a]. For the molecule `CCOC(=O)C(CO)NC(=O)c1sc(C#N)c(Br)c1Br` (stereo not drawn) [1.0731], the LogP is 2.62^[a]. For the molecule `CCOC(=O)C(CCSC)NC(=O)c1sc(C#N)c(Br)c1Br` (stereo not drawn) [1.0732], the LogP is 3.81^[a]. On to `COC(=O)C(CCSC)NC(=O)c1sc(C#N)c(Br)c1Br` (stereo not drawn) [1.0733], for which the LogP is 3.23^[a]. For `COC(=O)[C@H](CCSC)NC(=O)c1sc(C#N)c(Br)c1Br` [1.0734], the LogP is 3.40^[a]. As for `COC(=O)C(CCSC)NC(=O)c1sc(Cl)c(Br)c1C` (stereo not drawn) [1.0735], the figure is 3.63^[a]. Consider `CCOC(=O)[C@H](CCSC)NC(=O)c1sc(Cl)c(Br)c1C` [1.0736], for which the LogP was 4.02^[a]. `CNC(=O)CNC(=O)c1sc(Br)c(Br)c1F` [1.0737]: the LogP is 1.81^[a]. Consider `CNC(=O)CNC(=O)c1sc(Cl)c(Cl)c1Br` [1.0738], for which the LogP was 2.08^[a].

Take `CCOC(=O)CNC(=O)c1sc(C#N)c(Br)c1Br` [1.0739]: the LogP is 2.75^[a].

As to `CCOC(=O)C1(NC(=O)c2sc(C#N)c(Br)c2Br)CC1` [1.0740], the LogP was 3.02^[a]. Regarding `CCOC(=O)C(C#N)NC(=O)c1sc(Br)c(Br)c1Cl` (stereo not drawn) [1.0741], the LogP is 3.34^[a]. As to `CCOC(=O)C(C#N)NC(=O)c1sc(C#N)c(Br)c1C` (stereo not drawn) [1.0742], the LogP was 2.66^[a]. Turning to `CCOC(=O)C(C#N)NC(=O)c1sc(Cl)c(Cl)c1Br` (stereo not drawn) [1.0743], the LogP is 3.35^[a].

Consider `CCOC(=O)C(C#N)NC(=O)c1sc(Cl)c(Br)c1Br` (stereo not drawn) [1.0744], for which the LogP is 3.38^[a].

On to `N#CCNC(=O)c1sc(Cl)c(Cl)c1C(F)F` [1.0745], for which the LogP was 2.50^[a].

With `CCOC(=O)C(C)(C)NC(=O)c1sc(Cl)c(Cl)c1C(F)F` [1.0746], the LogP was 3.55^[a].

`COC(=O)C(NC(=O)c1sc(Cl)c(Cl)c1C(F)F)C(=O)OC` [1.0748]: the LogP was 3.00^[a].

For `CCOC(=O)CN(OC)C(=O)c1sc(C#N)c(Br)c1C` [1.0749], the LogP is 3.23^[a]. For `COC(=O)[C@H](CCSC)NC(=O)c1sc(Br)c(Br)c1Cl` [1.0750], the LogP was 4.04^[a]. With `COC(=O)C(CCSC)NC(=O)c1sc(C#N)c(Br)c1C` (stereo not drawn) [1.0751], the LogP is 3.06^[a]. As to `CCOC(=O)C(CSC)NC(=O)c1sc(C#N)c(Cl)c1Cl` (stereo not drawn) [1.0752], the LogP is 3.54^[a]. The value for `CCOC(=O)C(CSC)NC(=O)c1sc(Cl)c(Br)c1C` (stereo not drawn) [1.0753] was 3.97^[a]; that for `CCOC(=O)C(CSC)NC(=O)c1sc(Cl)c(Cl)c1C#N` (stereo not drawn) [1.0754] was 3.37^[a]. For `CCOC(=O)C(CSC)NC(=O)c1sc(Br)c(Br)c1C#N` (stereo not drawn) [1.0755], the LogP was 3.40^[a].

With `CCOC(=O)C(CSC)NC(=O)c1sc(Br)c(Cl)c1C` (stereo not drawn) [1.0756], the LogP was 3.94^[a]. For `CC(C)(C)OC(=O)C1(NC(=O)c2sc(Br)c(Br)c2Cl)CC(F)(F)C1` [1.0757], the LogP is 4.89^[a]. As to `CCOC(=O)C(C#N)NC(=O)c1sc(Cl)c(Cl)c1C` (stereo not drawn) [1.0758], the LogP is 3.23^[a]. Regarding `COC(=O)C(CCSC)NC(=O)c1sc(Br)c(Cl)c1C` (stereo not drawn) [1.0759], the LogP is 3.64^[a]. As to `CCOC(=O)C(C)(C)NC(=O)c1sc(Cl)c(Br)c1C` [1.0760], the LogP is 3.66^[a]. `CCOC(=O)C(C)(C)NC(=O)c1sc(Br)c(Cl)c1C` [1.0764]: the LogP is 3.71^[a]. As for `CCOC(=O)[C@H](CCSC)NC(=O)c1sc(Br)c(Cl)c1C` [1.0765], the figure is 4.01^[a]; as for `COC(=O)C(CCSC)NC(=O)c1sc(Br)c(Br)c1Cl` (stereo not drawn) [1.0766], 4.04^[a]. On to `COC(=O)[C@H](CCSC)NC(=O)c1sc(Cl)c(Br)c1C` [1.0767], for which the LogP was 3.74^[a]. As for `COC(=O)[C@H](CCSC)NC(=O)c1sc(Br)c(Cl)c1C` [1.0768], the LogP is 3.60^[a]. For the molecule `CCOC(=O)C(CSC)NC(=O)c1sc(C#N)c(Br)c1C` (stereo not drawn) [1.0769], the LogP is 3.26^[a].

Take `COC(=O)C(CCSC)NC(=O)c1sc(Cl)c(Cl)c1C#N` (stereo not drawn) [1.0770]: the LogP is 3.14^[a].
